# Entries after “also recorded” stand apart in the source; their conditions may differ. Where two headings read alike, the source gives them in different places.
# How the values were obtained:
# [1] = system: human CRC cell lines; assay: Follow-up viability screening (MultiTox Glo, sulforhodamine B); format: cell-based; conditions: four human CRC cell lines; 48 hrs; MultiTox Glo
# Method: (§1) Viability was evaluated using a commercially available chemiluminescent reagents (CellTiter-Glo, Promega Corp. G7572; MultiTox Glo, Promega Corp. G9270) in 96-well plate format according to the manufacturers protocol. […] Subsequently, CellTiter-Glo reagent was added and the plates were read using a plate reader (BioTek Synergy 4) with standard settings. Each set of conditions was replicated at least three times, technically and biologically. Error is reported as standard deviation (SD). The sulforhodamine B assay was run analogously to the above assays as previously described^19.
# [2] = system: pERK in HCC1806 and HT29 cells; assay: AlphaScreen SureFire pERK assay; format: cell-based, human; conditions: 48 h
# Method: Detection of activated ERK in cell lysates was enabled by the AlphaScreen SureFire ERK assay (Perkin Elmer) according to the manufacturers protocol. Cells were plated in 96-well plates for 24 hours prior to the assay.
# [3] = system: HT29 cells; assay: Glutathione and reactive oxygen species in HT29 cells; format: cell-based, human; conditions: 48 h
# Method: Glutathione levels were measured using a commercially available kit (Cayman Chemical 703002) according to the manufacturers protocol. Concurrently ROS was measured in cells using CM-H2DCFDA (Life Technologies C6827) coupled with flow cytometry in accordance with the manufacturers protocol. The assay was replicated replicated at least three times, technically and biologically. Significance was calculated using a t-test in Graphpad Prism. Error is reported as standard deviation (SD).
# [4] = system: HCC1806 and HT29 cells; assay: Autophagic flux (CYTO-ID); format: cell-based, human; conditions: single agent
# Method: Autophagic flux was measure using the CYTO-ID autophagy detection kit (Enzo Life Sciences ENZ-51031). HCC1806 and HT29 cells were seeded in 96 well plates the day before the experiment. […] Following treatment, cells were gently washed with assay buffer followed by addition of the dual color detection solution and incubation at 37° C. for 30 min. The plate was analyzed on a fluorescence microplane reader (BioTek Synergy 4).
# [5] = system: HT29 and HCT-116 cells; assay: Cell viability with or without chloroquine; format: cell-based, human; conditions: 48 h
# Method: as §1
# [6] = system: human CRC organoids A-007 and A-008; assay: Human CRC organoid viability assay; format: cell-based; conditions: V-9302 25 μM or CB-839 35 μM, 96 h
# Method: Human CRC-derived organoids were prepared as reported method with modification^41. Briefly, specimens from freshly resected tumors were minced and digested with 2 mg/ml type 2 collagenase (Worthington, N.J., USA). Samples were passed through 40 µm filters (Greiner Bio One, NC, USA) and epithelial cells trapped on the filters were embed in Matrigel (Corning, MA, USA) and cultured with advanced DMEM/F12 supplemented with N2 and B27 supplements (Thermo Fischer, MA, USA), 50 ng/ml rhEGF (R&D systems, MN, USA) and 1% antibiotic-antimycotic (Corning). For viability assay, organoids were dissociated by TrypLE express (Thermo Fischer) and suspended in Matrigel. […] After 4 days of culture, images of the organoids in Matrigel were captured and the number of viable cells were quantified with CellTiter Aqueous One Cell Proliferation Assay kit (Promega, WI, USA) and a Synergy 4 plate reader (BioTek, VT, USA). The assay was replicated at least three times, technically and biologically. Significance was calculated using a t-test in Graphpad Prism. Error is reported as standard deviation (SD).
# [7] = target: ASCT2 (Rattus norvegicus (Rat), UniProt D3ZJ25); assay: Inhibition of ASCT2-mediated glutamine uptake in C6 (rat) cells; format: cell-based; conditions: for IC50: C6 (rat) cells, glutamine uptake, mean of at least 3 biological replicates; for preference for blocking glutamine transport in rat vs human cell line: C6 (rat) vs HEK293 (human)
# ASCT2 (Rattus norvegicus (Rat), UniProt D3ZJ25), sequence (D3ZJ25 whole entry): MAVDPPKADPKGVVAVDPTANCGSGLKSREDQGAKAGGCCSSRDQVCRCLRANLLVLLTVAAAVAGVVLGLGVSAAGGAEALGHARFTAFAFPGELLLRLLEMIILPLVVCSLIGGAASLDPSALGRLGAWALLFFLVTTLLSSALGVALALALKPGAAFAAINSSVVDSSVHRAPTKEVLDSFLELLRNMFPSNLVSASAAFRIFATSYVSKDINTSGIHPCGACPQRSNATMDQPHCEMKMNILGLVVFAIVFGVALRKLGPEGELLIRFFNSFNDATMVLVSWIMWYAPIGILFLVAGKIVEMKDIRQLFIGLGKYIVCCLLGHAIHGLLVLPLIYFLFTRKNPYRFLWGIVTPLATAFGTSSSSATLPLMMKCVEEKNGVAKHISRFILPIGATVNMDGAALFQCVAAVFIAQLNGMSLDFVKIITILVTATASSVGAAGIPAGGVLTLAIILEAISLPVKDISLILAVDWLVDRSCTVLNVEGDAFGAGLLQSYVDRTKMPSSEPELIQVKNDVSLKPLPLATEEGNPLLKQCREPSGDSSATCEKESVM
# [8] = target: ASCT2 (Homo sapiens (Human), UniProt Q15758); assay: Inhibition of ASCT2-mediated 3H-glutamine uptake in live HEK293 (human) cells; format: cell-based
# ASCT2 (Homo sapiens (Human), UniProt Q15758), sequence (Q15758 whole entry): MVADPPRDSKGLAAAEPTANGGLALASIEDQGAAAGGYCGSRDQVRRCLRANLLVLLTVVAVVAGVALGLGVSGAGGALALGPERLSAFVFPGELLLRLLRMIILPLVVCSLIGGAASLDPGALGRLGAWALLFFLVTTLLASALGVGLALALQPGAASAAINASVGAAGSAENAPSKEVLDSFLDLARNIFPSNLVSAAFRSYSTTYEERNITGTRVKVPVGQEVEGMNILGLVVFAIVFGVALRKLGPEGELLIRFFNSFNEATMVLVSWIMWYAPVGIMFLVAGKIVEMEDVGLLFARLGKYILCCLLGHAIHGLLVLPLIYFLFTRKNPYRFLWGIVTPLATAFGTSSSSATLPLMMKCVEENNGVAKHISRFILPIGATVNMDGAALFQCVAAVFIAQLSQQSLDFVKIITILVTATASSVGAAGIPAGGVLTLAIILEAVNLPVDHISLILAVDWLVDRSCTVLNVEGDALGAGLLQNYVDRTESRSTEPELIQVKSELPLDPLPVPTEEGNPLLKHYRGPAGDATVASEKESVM
# [9] = system: ASCT2; conditions: cited from earlier work
# [10] = system: HCC1806 cells; assay: Cell viability in HCC1806 cells; format: cell-based; conditions: Homo sapiens, exposure 48 hrs
# [11] = HEK293 (human) cells, glutamine uptake, mean of at least 3 biological replicates, read-out: IC50 (human)
IC50 [7] [µM],"IC50 [8, 11] [µM]",Compound,further results
–,–,"O=C(Cc1cccc(OC(F)(F)F)c1)Nc1ccc(CCCCc2nnc(NC(=O)Cc3ccccn3)s2)nn1 [CB-839, reference compound]","EC50, cellular viability [1]: did not exhibit appreciable activity; pERK (independent biochemical assay) [2]: not observed; GSSG levels and ROS [3]: not observed; autophagic flux [4]: did not lead to elevated autophagic flux; cell viability, single agent [5]: did not decrease cell viability; organoid viability [6]: not significantly affected"
1.3,57.2,COc1cccc(Oc2ccccc2CN(CC[C@@H](N)C(=O)O)Cc2ccccc2Oc2ccccc2OC)c1 [Compound 5],preference for blocking glutamine transport in rat vs human cell line [7]: exhibited this preference
8.7,11.9,COc1ccc(Oc2ccccc2CN(CC[C@@H](N)C(=O)O)Cc2ccccc2Oc2ccc(OC)cc2)cc1 [Compound 6],preference for blocking glutamine transport in rat vs human cell line [7]: roughly equal potencies in both cells lines
1.8,33.8,N[C@H](CCN(Cc1ccccc1Oc1ccccc1F)Cc1ccccc1Oc1ccccc1F)C(=O)O [Compound 8],preference for blocking glutamine transport in rat vs human cell line [7]: some preference for blocking glutamine transport in the rat cell line
36.3,–,N[C@H](CCN(Cc1ccccc1Oc1cccc(F)c1)Cc1ccccc1Oc1cccc(F)c1)C(=O)O [Compound 9],–
68.2,59.6,N[C@H](CCN(Cc1ccccc1Oc1ccccn1)Cc1ccccc1Oc1ccccn1)C(=O)O [Compound 11],preference for blocking glutamine transport in rat vs human cell line [7]: roughly equal potencies in both cells lines
18.4,40.1,N[C@H](CCN(Cc1ccccc1OCc1ccccc1Cl)Cc1ccccc1OCc1ccccc1Cl)C(=O)O [Compound 13],–
12.7,50.8,N[C@H](CCN(Cc1ccccc1OCc1cccc(O)c1)Cc1ccccc1OCc1cccc(Cl)c1)C(=O)O [Compound 14],–
20.1,33.7,N[C@H](CCN(Cc1ccccc1OCc1ccc(Cl)cc1)Cc1ccccc1OCc1ccc(Cl)cc1)C(=O)O [Compound 15],–
9,–,Cc1cccc(COc2ccccc2CN(CC[C@@H](N)C(=O)O)Cc2ccccc2OCc2cccc(C)c2)c1 [Compound 17],–
86.4,17.5,Cc1ccc(COc2ccccc2CN(CC[C@@H](N)C(=O)O)Cc2ccccc2OCc2ccc(C)cc2)cc1 [Compound 18],preference for blocking glutamine transport in rat vs human cell line [7]: significant preference for inhibiting glutamine uptake in the human form of ASCT2
3.3,–,N[C@H](CCN(Cc1ccccc1OCc1ccccc1F)Cc1ccccc1OCc1ccccc1F)C(=O)O [Compound 19],–
8.4,48.3,N[C@H](CCN(Cc1ccccc1OCc1ccccn1)Cc1ccccc1OCc1ccccn1)C(=O)O [Compound 21],–
17.3,89.1,N[C@H](CCN(Cc1ccccc1OCc1cccnc1)Cc1ccccc1OCc1cccnc1)C(=O)O [Compound 22],–
–,–,"N[C@@H](CCC(=O)Nc1ccc([N+](=O)[O-])cc1)C(=O)O [GPNA, L-γ-glutamyl-p-nitroanilide]","IC50 ([8]; live HEK-293 cells, read-out: IC50, inhibition of ASCT2-mediated glutamine uptake in human cells): 1000 µM; potency as ASCT2 inhibitor (previously reported) [9]: poor potency and selectivity in human cells; also recorded: modest potency in the low millimolar range"
–,–,NC(=O)CC[C@H](Nc1ccccc1CN1CCOCC1)C(=O)O [N-(2-(morpholinomethyl)phenyl)-L-glutamine],activity against ASCT2 compared to GPNA (previously described) [9]: three-fold improved activity
–,–,N[C@@H](COC(=O)c1ccc(-c2ccccc2)cc1)C(=O)O [O-(4-phenylbenzoyl)-L-serine],"Ki ([9]; Albers et al., read-out: apparent affinity): 30 µM"
–,–,"Cc1cccc(COc2ccccc2CN(Cc2ccccc2OCc2cccc(C)c2)C2CCN[C@H](C(=O)O)C2)c1 (stereo partly drawn) [WJB-A-110, (2S)-4-(Bis(2-((3-methylbenzyl)oxy)benzyl)amino)piperidine-2-carboxylic Acid]",IC50 [10]: 32 µM
–,–,"Cc1cccc(COc2ccccc2CN(Cc2ccccc2OCc2cccc(C)c2)C2CN[C@H](C(=O)O)C2)c1 (stereo partly drawn) [WJB-A-119, (2S)-4-(Bis(2-((3-methylbenzyl)oxy)benzyl)amino)pyrrolidine-2-carboxylic Acid]",IC50 [10]: 23 µM

Compound,IC50 [7] [µM],"IC50 [8, 11] [µM]",further results
N[C@H](CCN(Cc1ccccc1Oc1cccc(Cl)c1)Cc1ccccc1Oc1cccc(Cl)c1)C(=O)O [Compound 7],–,26,–
Cc1ccc(Oc2ccccc2CN(CC[C@@H](N)C(=O)O)Cc2ccccc2Oc2ccc(F)cc2)cc1 [Compound 10],10.5,142,preference for blocking glutamine transport in rat vs human cell line [7]: some preference for blocking glutamine transport in the rat cell line
COc1cccc(COc2ccccc2CN(CC[C@@H](N)C(=O)O)Cc2ccccc2OCc2cccc(OC)c2)c1 [Compound 12],5.1,7.2,–
Cc1ccccc1COc1ccccc1CN(CC[C@@H](N)C(=O)O)Cc1ccccc1OCc1ccccc1C [Compound 16],41.7,25.6,–
N[C@H](CCN(Cc1ccccc1OCc1ccc(F)cc1)Cc1ccccc1OCc1ccc(F)cc1)C(=O)O [Compound 20],11.2,–,–

# Reference: patent publication US10793514B2, “Glutamine transport inhibitors and methods for treating cancer” (Vanderbilt University, priority 2016, dated 2020)
